Reference: publication PMC6792352, “Limited Chemical Structural Diversity Found to Modulate Thyroid Hormone Receptor in the Tox21 Chemical Library” (Environmental Health Perspectives, 2019)
Structures can show the parent of a compound that is named as a salt.

Test: in vitro
Conditions: rat, gh3-tre-luc cells

Row | SMILES | CC50 at 24 h (AC50 (uM) modified / 1000) | also measured
1 | CCN(CC)CCOC(=O)C1(c2ccccc2)CCCC1 [Caramiphen edisylate] | 43.2 µM | 
2 | C[N+](C)(C)CCOC(N)=O [Carbachol] | > 50 µM | 
3 | COC(=O)N/N=C/c1c[n+]([O-])c2ccccc2[n+]1[O-] [Carbadox] | > 50 µM | 
4 | NC(=O)N1c2ccccc2C=Cc2ccccc21 [Carbamazepine] | > 90 µM | 
5 | CNC(=O)Oc1cccc2ccccc12 [Carbaryl] | > 90 µM | 
6 | CN1C2=CC(=O)/C(=N\NC(N)=O)C=C2CC1S(=O)(=O)O (centres unmarked) [Carbazochrome sodium sulfonate] | > 50 µM | 
7 | CN1CC(O)C2=C/C(=N/NC(N)=O)C(=O)C=C21 (centres unmarked) [Carbazochrome] | > 50 µM | 
8 | c1ccc2c(c1)[nH]c1ccccc12 [Carbazole] | > 90 µM | 
9 | CC1(C)S[C@@H]2[C@H](NC(=O)C(C(=O)O)c3ccccc3)C(=O)N2[C@H]1C(=O)O (some centres unmarked) [Carbenicillin disodium] | > 50 µM | 
10 | CC1(C)S[C@@H]2[C@H](NC(=O)C(C(=O)Oc3ccc4c(c3)CCC4)c3ccccc3)C(=O)N2[C@H]1C(=O)O (some centres unmarked) [Carbenicillin indanyl] | > 50 µM | 
11 | CC1(C)[C@@H](OC(=O)CCC(=O)O)CC[C@]2(C)[C@H]3C(=O)C=C4[C@@H]5C[C@@](C)(C(=O)O)CC[C@]5(C)CC[C@@]4(C)[C@]3(C)CC[C@@H]12 [Carbenoxolone sodium] | > 20 µM | 
12 | CCNC(=O)[C@@H](C)OC(=O)Nc1ccccc1 [Carbetamide] | > 90 µM | 
13 | CCN(CC)CCOCCOC(=O)C1(c2ccccc2)CCCC1 [Carbetapentane] | > 50 µM | 
14 | C[C@@](Cc1ccc(O)c(O)c1)(NN)C(=O)O [Carbidopa] | > 50 µM | 
15 | CN(C)CCOC(c1ccc(Cl)cc1)c1ccccn1 (centres unmarked) [Carbinoxamine maleate] | 23 µM | 
16 | CCOC(=O)NC(O)C(Cl)(Cl)Cl (centres unmarked) [Carbocloral] | > 50 µM | 
17 | N[C@@H](CSCC(=O)O)C(=O)O [Carbocysteine] | > 50 µM | 
18 | CNC(=O)Oc1cccc2c1OC(C)(C)C2 [Carbofuran] | > 90 µM | 

Row | SMILES | CC50 at 24 h (AC50 (uM) modified / 1000) | also measured
19 | CO[C@@H]1[C@@H](O[C@@H]2O[C@H](C)[C@@H](O[C@H]3C[C@@](C)(O)[C@@H](OC(=O)CC(C)C)[C@H](C)O3)[C@H](N(C)C)[C@H]2O)[C@@H](CC=O)C[C@@H](C)C(=O)/C=C/[C@@H]2O[C@H]2C[C@@H](C)OC(=O)C[C@H]1OC(C)=O [Carbomycin A] | 34.1 µM | 
20 | S=C=S [Carbon disulfide] | > 90 µM | 
21 | ClC(Cl)(Cl)Cl [Carbon tetrachloride] | > 90 µM | 
22 | N#CC(C#N)=NNc1cccc(Cl)c1 [Carbonyl cyanide chlorophenylhydrazone] | 1.97 µM | 
23 | CCOP(=S)(OCC)SCSc1ccc(Cl)cc1 [Carbophenothion] |  | CC50 at 24 h (AC50 (uM) modified / 1000, Tox21_110001=Tox21_113359, viability, 1 nM T3 present, 24 h): > 50 µM; CC50 at 24 h (AC50 (uM) modified / 1000, Tox21_110001=Tox21_301426, viability, 1 nM T3 present, 24 h): > 90 µM
24 | COC(COC(N)=O)C1=C(N2CC2)C(=O)C(C)=C(N2CC2)C1=O (centres unmarked) [Carboquone] | 0.556 µM | 
25 | CCCCN(CCCC)SN(C)C(=O)Oc1cccc2c1OC(C)(C)C2 [Carbosulfan] |  | CC50 at 24 h (AC50 (uM) modified / 1000, Tox21_110001=Tox21_202336, viability, 1 nM T3 present, 24 h): > 90 µM; CC50 at 24 h (AC50 (uM) modified / 1000, Tox21_110001=Tox21_300473, viability, 1 nM T3 present, 24 h): 24.2 µM
26 | CC1=C(C(=O)Nc2ccccc2)SCCO1 [Carboxin] | > 90 µM | 
27 | CCC(Br)(CC)C(=O)NC(N)=O [Carbromal] |  | CC50 at 24 h (AC50 (uM) modified / 1000, Tox21_110001=Tox21_302247, viability, 1 nM T3 present, 24 h): > 90 µM
28 | CCCCNC(=O)NS(=O)(=O)c1ccc(N)cc1 [Carbutamide] | > 90 µM | 
29 | CCOC(=O)C(Cl)Cc1cc(-n2nc(C)n(C(F)F)c2=O)c(F)cc1Cl (centres unmarked) [Carfentrazone-ethyl] |  | CC50 at 24 h (AC50 (uM) modified / 1000, Tox21_110001=Tox21_300994, viability, 1 nM T3 present, 24 h): > 90 µM
30 | CC(C)c1ccc(C(=O)NC(=N)N)cc1S(C)(=O)=O [Cariporide mesylate] | > 70 µM | 
31 | CCCC(C)(COC(N)=O)COC(=O)NC(C)C (centres unmarked) [Carisoprodol] |  | CC50 at 24 h (AC50 (uM) modified / 1000, Tox21_110001=Tox21_110122, viability, 1 nM T3 present, 24 h): > 50 µM; CC50 at 24 h (AC50 (uM) modified / 1000, Tox21_110001=Tox21_200623, viability, 1 nM T3 present, 24 h): > 90 µM
32 | CCCCCCNC(=O)n1cc(F)c(=O)[nH]c1=O [Carmofur] | 8.69 µM | 
33 | O=C(O)c1ccc2[nH]cc(CCCCN3CC=C(c4ccccc4)CC3)c2c1 [Carmoxirole] | > 50 µM | 
34 | O=NN(CCCl)C(=O)NCCCl [Carmustine] | > 50 µM | 
35 | C[N+](C)(C)CC(O)CC(=O)[O-] (centres unmarked) [Carnitine hydrochloride] | > 50 µM | 
